The target in this experiment is GST-tagged truncated human mutant G2019S LRRK2 (Homo sapiens, UniProt Q5S007, G2019S). Kind of experiment: LRRK2 G2019S Km ATP LanthaScreen assay. The experiment is classed as biochemical. The note with it: 134 μM ATP (Km ATP), LRRKtide substrate, mean IC50 values; read-out: LRRK2 pIC50 (converted). The gist of the method: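 Compound preincubated 15 min at room temperature with enzyme in pH 8.5 Tris buffer (10 mM MgCl2). Then a 90 min reaction at ambient temperature with 134 μM (Km) ATP and fluorescein-LRRKtide. EDTA stop, Tb anti-phospho antibody TR-FRET; […]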
For `Cc1nn(C2C[C@@H](C)O[C@@H](C)C2)cc1Nc1ncc2ccc(N3C(=O)OC[C@@H]3C)cc2n1` (stereo partly drawn) [Ex-7.5, (4S)-3-[2-({1-[(2R,6S)-2,6-dimethyloxan-4-yl]-3-methyl-1H-pyrazol-4-yl}amino)quinazolin-7-yl]-4-methyl-1,3-oxazolidin-2-one], the IC50 was 33.7 nM.

As for `CCn1ncc(Nc2ncc3cc(Cl)c(N4CCN(C5(C)COC5)CC4)cc3n2)c1C` [Ex-4.13, 6-chloro-N-(1-ethyl-5-methyl-1H-pyrazol-4-yl)-7-[4-(3-methyloxetan-3-yl)piperazin-1-yl]quinazolin-2-amine], the IC50 was 6.83 nM.

In the case of `Cc1cc2cnc(Nc3cnn(C45CC(C4)C5)c3Cl)nc2cc1N1CC2(C1)CN(C1COCC1O)C2` (single isomer, unassigned) [Ex-5.16, (3R,4R) or (3S,4S) 4-(6-(2-((1-(bicyclo[1.1.1]pentan-1-yl)-5-chloro-1H-pyrazol-4-yl)amino)-6-methylquinazolin-7-yl)-2,6-diazaspiro[3.3]heptan-2-yl)tetrahydrofuran-3-ol], the IC50 was 20.9 nM.

In the case of `CC(C)(O)CN1CCN(c2cc3nc(Nc4cnn(C5CC5)c4Cl)ncc3cc2Cl)CC1` [Ex-1.31, 1-(4-{6-chloro-2-[(5-chloro-1-cyclopropyl-1H-pyrazol-4-yl)amino]quinazolin-7-yl}piperazin-1-yl)-2-methylpropan-2-ol], the IC50 was 10.1 nM.

Consider `OC[C@@H]1[C@H]2CN(c3cc4nc(Nc5cnn(CC(F)F)c5Cl)ncc4cc3Cl)C[C@@H]12` [Ex-1.19, [(1R,5S,6R)-3-(6-chloro-2-{[5-chloro-1-(2,2-difluoroethyl)-1H-pyrazol-4-yl]amino}quinazolin-7-yl)-3-azabicyclo[3.1.0]hexan-6-yl]methanol], for which the IC50 is 4.87 nM.

On to `Cc1cc2cnc(Nc3cnn(C4CC4(F)F)c3Cl)nc2cc1N1CCNCC1` (centres unmarked) [Ex-5.14, N-(5-chloro-1-(2,2-difluorocyclopropyl)-1H-pyrazol-4-yl)-6-methyl-7-(piperazin-1-yl)quinazolin-2-amine], for which the IC50 was 11.6 nM.

Consider `CC1(N2CCN(c3cc4nc(Nc5cnn(C6(C(F)(F)F)CC6)c5Cl)ncc4cc3Cl)CC2)COC1` [Ex-3.24, 6-chloro-N-{5-chloro-1-[1-(trifluoromethyl)cyclopropyl]-1H-pyrazol-4-yl}-7-[4-(3-methyloxetan-3-yl)piperazin-1-yl]quinazolin-2-amine], for which the IC50 was 3.68 nM.

As for `Cc1cc2cnc(Nc3cnn(C)c3C)nc2cc1N1CCN([C@]2(C)COC[C@@H]2O)CC1` [Ex-2.1, (3R,4R)-4-(4-(2-((1,5-Dimethyl-1H-pyrazol-4-yl)amino)-6-methylquinazolin-7-yl)piperazin-1-yl)-4-methyltetrahydrofuran-3-ol], the IC50 is 0.576 nM.

As to `CN1CC2(C1)CN(c1cc3nc(Nc4cnn(C5(C)CC5)c4Cl)ncc3cc1Cl)C2` [Ex-4.37, 6-chloro-N-[5-chloro-1-(1-methylcyclopropyl)-1H-pyrazol-4-yl]-7-(6-methyl-2,6-diazaspiro[3.3.]heptan-2-yl)quinazolin-2-amine], the IC50 was 1.24 nM.

Consider `Cc1nsc(Nc2ncc3ccc(N4C(=O)OC[C@@H]4C)cc3n2)c1C1CC1` [Ex-7.8, (4S)-3-{2-[(4-cyclopropyl-3-methyl-1,2-thiazol-5-yl)amino]quinazolin-7-yl}-4-methyl-1,3-oxazolidin-2-one], for which the IC50 was 11 nM.

For the molecule `C[C@]1(O)COCC12CCN(c1cc3nc(Nc4cnn(C5CC5)c4Cl)ncc3cc1Cl)CC2` [Ex-3.4], the IC50 was 19.9 nM.

As for `C[C@H]1COC(=O)N1c1ccc2cnc(Nc3cnn(C4CCN(C5COC5)CC4F)c3Cl)nc2c1` (stereo in doubt) [Ex-7.3, (4S)-3-[2-({5-chloro-1-[(3S,4S)-3-fluoro-1-(oxetan-3-yl)piperidin-4-yl]-1H-pyrazol-4-yl}amino)quinazolin-7-yl]-4-methyl-1,3-oxazolidin-2-one], the IC50 is 0.976 nM.

On to `Cc1c(Nc2ncc3ccc(N4[C@H](C)CC[C@H]4C)cc3n2)cnn1CCF` [Ex-1.12, (2R,5S or 2,5R)-7-[2,5-dimethylpyrrolidin-1-yl]-N-[1-(2-fluoroethyl)-5-methyl-1H-pyrazol-4-yl]quinazolin-2-amine], for which the IC50 was 20.2 nM.

For `OC1CN(c2cc3nc(Nc4cnn(CC(F)F)c4Cl)ncc3cc2Cl)C1` [Ex-1.18, 1-(6-chloro-2-{[5-chloro-1-(2,2-difluoroethyl)-1H-pyrazol-4-yl]amino}quinazolin-7-yl)azetidin-3-ol], the IC50 was 18.9 nM.

`Cc1c(Nc2ncc3cc(Cl)c(N4CCC(C)(O)CC4C)cc3n2)cnn1C1CC1` (single isomer, unassigned) [Ex-9.2, (2R,4S or 2S,4R, or 2S,4S, or 2R,4R)-1-(6-Chloro-2-((1-cyclopropyl-5-methyl-1H-pyrazol-4-yl)amino)quinazolin-7-yl)-2,4-dimethylpiperidin-4-ol]: the IC50 was 1.06 nM.

For the molecule `C[C@@]1(O)COCC12CCN(c1cc3nc(Nc4cnn(C5CC5)c4Cl)ncc3cc1Cl)CC2` [Ex-3.5], the IC50 is 1.54 nM.

`Cc1c(Nc2ncc3cc(Cl)c(N4CCN(C5COCC5O)CC4)cc3n2)cnn1CC(F)(F)F` (single isomer, unassigned) [Ex-6.32, (3S,4S) or (3R,4R) 4-[4-(6-chloro-2-{[5-methyl-1-(2,2,2-trifluoroethyl)-1H-pyrazol-4-yl]amino}quinazolin-7-yl)piperazin-1-yl]oxolan-3-ol]: the IC50 is 0.608 nM.

Take `Clc1cc2cnc(Nc3cnn(C4CC4)c3Cl)nc2cc1N1CCC(N2CCC2)CC1` [Ex-1.28, 7-[4-(azetidin-1-yl)piperidin-1-yl]-6-chloro-N-(5-chloro-1-cyclopropyl-1H-pyrazol-4-yl)quinazolin-2-amine]: the IC50 is 3.31 nM.

Regarding `CC1(O)CC2(CN(c3cc4nc(Nc5cnn(C6(C)CC6)c5Cl)ncc4cc3Cl)C2)C1` [Ex-4.27, 2-(6-chloro-2-{[5-chloro-1-(1-methylcyclopropyl)-1H-pyrazol-4-yl]amino}quinazolin-7-yl)-6-methyl-2-azaspiro[3.3]heptan-6-ol], the IC50 is 1.6 nM.

`CCn1ncc(Nc2ncc3ccc(N4CCC4C)cc3n2)c1C` (single isomer, unassigned) [Ex-1.10, (S) or (R) N-(1-ethyl-5-methyl-1H-pyrazol-4-yl)-7-(2-methylazetidin-1-yl)quinazolin-2-amine]: the IC50 is 13.3 nM.

Regarding `Cc1nsc(Nc2ncc3ccc(N4C(=O)C5CCC4C5)cc3n2)c1C` (centres unmarked) [Ex-8.14, 2-{2-[(3,4-dimethyl-1,2-thiazol-5-yl)amino]quinazolin-7-yl}-2-azabicyclo[2.2.1]heptan-3-one], the IC50 is 7.79 nM.

In the case of `CC1(N2CCN(c3cc4nc(Nc5cnn(CC6CC6)c5Cl)ncc4cc3Cl)CC2)COC1` [Ex-4.48, 6-chloro-N-[5-chloro-1-(cyclopropylmethyl)-1H-pyrazol-4-yl]-7-[4-(3-methyloxetan-3-yl)piperazin-1-yl]quinazolin-2-amine], the IC50 was 0.625 nM.

As to `C[C@H]1CN(C)CCN1c1cc2nc(Nc3cnn(C4(C)CC4)c3Cl)ncc2cc1Cl` [Ex-4.36, 6-chloro-N-[5-chloro-1-(1-methylcyclopropyl)-1H-pyrazol-4-yl]-7-[(2S)-2,4-dimethylpiperazin-1-yl]quinazolin-2-amine], the IC50 was 6.06 nM.

For the origin of these results see patent US20230303540A1 (Merck Sharp & Dohme LLC, priority 2020, published 2023).
